The term IC50 denotes the concentration needed to halve the response being measured.

Here are results for 13 molecules from patent publication US11370794B2, “Toll-like receptor antagonist compounds and methods of use” (Dynavax Technologies Corporation, priority 2016, dated 2022).

One assay has as its target T1, human TLR8 (Homo sapiens, UniProt Q9NR97).
T1 construct: endogenous in cells; host or cells: primary human monocytes (CD14 microbeads) from buffy coats of healthy donors
T1 sequence (Q9NR97 27-1041): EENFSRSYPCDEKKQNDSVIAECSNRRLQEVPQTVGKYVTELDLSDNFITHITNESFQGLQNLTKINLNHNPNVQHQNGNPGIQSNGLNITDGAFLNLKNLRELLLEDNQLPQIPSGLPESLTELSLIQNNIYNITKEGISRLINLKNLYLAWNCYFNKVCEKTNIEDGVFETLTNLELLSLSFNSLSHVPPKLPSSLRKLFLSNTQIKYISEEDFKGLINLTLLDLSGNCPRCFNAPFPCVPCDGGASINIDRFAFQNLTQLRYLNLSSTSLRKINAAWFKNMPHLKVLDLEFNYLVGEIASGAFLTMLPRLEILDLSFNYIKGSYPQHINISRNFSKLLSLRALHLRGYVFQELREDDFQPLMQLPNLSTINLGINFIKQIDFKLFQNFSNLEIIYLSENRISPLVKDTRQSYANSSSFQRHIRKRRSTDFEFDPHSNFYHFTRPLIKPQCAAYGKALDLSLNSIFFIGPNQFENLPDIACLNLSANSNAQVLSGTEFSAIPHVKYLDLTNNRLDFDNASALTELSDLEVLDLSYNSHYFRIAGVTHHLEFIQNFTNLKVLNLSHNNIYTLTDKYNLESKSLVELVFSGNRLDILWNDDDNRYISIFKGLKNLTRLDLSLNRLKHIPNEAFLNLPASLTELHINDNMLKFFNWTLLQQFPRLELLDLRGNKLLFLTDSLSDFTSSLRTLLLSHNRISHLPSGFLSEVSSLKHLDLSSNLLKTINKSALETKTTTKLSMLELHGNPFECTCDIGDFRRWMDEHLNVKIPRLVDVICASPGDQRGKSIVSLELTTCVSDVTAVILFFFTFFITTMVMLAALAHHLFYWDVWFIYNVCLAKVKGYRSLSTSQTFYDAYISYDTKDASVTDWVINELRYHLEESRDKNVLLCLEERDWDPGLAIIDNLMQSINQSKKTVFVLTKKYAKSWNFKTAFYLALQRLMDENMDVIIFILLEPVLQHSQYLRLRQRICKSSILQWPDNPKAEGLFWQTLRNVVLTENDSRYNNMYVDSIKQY
Briefly: Inhibition of human TLR8 in human monocytes (TNF-alpha / IL-1 beta ELISA). In kind it is cell-based. The conditions noted are these: for IC50: human monocytes, agonist ORN8L 100 μg/mL, 24 hours. The text has this:
Example B2—Inhibition of Human TLR8 in Human Monocytes
When placed in cell culture, engagement of TLR8 with an agonist leads to expression and release of cytokines into the media.
Buffy coats from anonymized, healthy human donors. CD14 microbeads (Milteny Cat. No. 130-050-201). TLR8 agonist, (5′-M2UGCUGCUUGUG-/glycerol/-GUGUUCGUCGUM2-5′ with M2=C6-linker, ORN8L, RNA oligonucleotide (Chem Genes Corp.). Human TNF-alpha ELISA kit (Mabtech Cat. No. 3510-1H-20). Human interleukin (IL)-1 beta ELISA kit (Mabtech Cat. No. 3415-1H-20).
Following isolation of monocytes from buffy coats, human monocytes were plated into 96 well plates at approximately 200,000 cells per well. Test compounds were serially diluted and added to the plates. Immediately after adding test compounds, the TLR8 agonist (ORN8L, RNA oligonucleotide) was added to a final concentration of 100 μg/mL. Cells were incubated for 24 hours at 37° C. A portion of the media supernatant was analyzed for the presence of TNF-alpha and/or IL-1 beta using ELISA kits. The amount of TNF-alpha or IL-1 beta produced is a reflection of the amount of TLR8-dependent receptor activity. The IC50 values (the concentration at which 50% of the TLR8-dependent receptor activity is reduced) were calculated based upon the TLR8-dependent receptor activity over a range of different test compound concentrations.
(In general: In an ELISA, binding on a coated surface is turned into a signal by an enzyme label.)

The next assay has as its target T2, human TLR9 (Homo sapiens, UniProt Q9NR96).
T2 construct: endogenous in cells; host or cells: primary human B cells (CD19 microbeads) from buffy coats of healthy donors
T2 sequence (Q9NR96 26-1032): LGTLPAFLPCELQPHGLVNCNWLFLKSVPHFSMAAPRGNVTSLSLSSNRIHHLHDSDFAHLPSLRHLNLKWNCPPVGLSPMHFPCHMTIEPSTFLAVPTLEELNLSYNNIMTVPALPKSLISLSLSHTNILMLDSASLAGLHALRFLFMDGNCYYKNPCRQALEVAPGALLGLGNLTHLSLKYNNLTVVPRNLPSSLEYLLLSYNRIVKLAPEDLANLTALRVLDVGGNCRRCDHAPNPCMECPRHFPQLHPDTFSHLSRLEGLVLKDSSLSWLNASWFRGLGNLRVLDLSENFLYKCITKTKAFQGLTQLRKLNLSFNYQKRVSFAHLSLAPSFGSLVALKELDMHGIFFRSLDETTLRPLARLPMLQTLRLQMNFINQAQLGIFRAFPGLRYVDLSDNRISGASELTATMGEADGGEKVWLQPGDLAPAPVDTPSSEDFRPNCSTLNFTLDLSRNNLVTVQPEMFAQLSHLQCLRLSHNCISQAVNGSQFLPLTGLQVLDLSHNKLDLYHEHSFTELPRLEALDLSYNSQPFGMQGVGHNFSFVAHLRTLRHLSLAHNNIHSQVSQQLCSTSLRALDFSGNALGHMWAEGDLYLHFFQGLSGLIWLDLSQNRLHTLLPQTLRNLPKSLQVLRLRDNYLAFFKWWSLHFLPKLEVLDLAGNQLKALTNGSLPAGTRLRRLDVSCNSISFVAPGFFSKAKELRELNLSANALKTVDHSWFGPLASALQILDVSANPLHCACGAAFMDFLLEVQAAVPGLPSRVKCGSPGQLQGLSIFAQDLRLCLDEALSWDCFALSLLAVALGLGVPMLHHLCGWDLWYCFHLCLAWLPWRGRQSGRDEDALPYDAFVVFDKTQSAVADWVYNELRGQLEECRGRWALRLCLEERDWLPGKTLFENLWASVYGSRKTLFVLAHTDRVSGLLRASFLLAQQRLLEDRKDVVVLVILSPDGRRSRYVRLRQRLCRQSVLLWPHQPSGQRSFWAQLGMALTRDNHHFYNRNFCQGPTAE
As to the kind of experiment: Inhibition of human TLR9 in human B cells (IL-6 ELISA). In kind it is cell-based. Particulars: for IC50: human B cells, agonist 1018 ISS 1 μM; for inhibits TLR9-dependent responses (in words): summary statement of the description. As for the experimental part: Example B3—Inhibition of Human TLR9 in Human B Cells
When placed in cell culture, engagement of TLR9 with an agonist leads to expression and release of cytokines into the media.
Buffy coats from anonymized, healthy human donors. CD19 microbeads (Miltenyi Cat. No. 130-050-301). TLR9 agonist, 1018 ISS, CpG-containing DNA oligonucleotide. Human interleukin (IL)-6 ELISA kit (Mabtech Cat. No. 3460-1H-20).
Following isolation of […] from buffy coats, human B cells were plated into 96 well plates at approximately 300,000 cells per well. Test compounds were serially diluted and added to the plates. Test compounds were typically assayed using a concentration range from about 0.01 μM to about 10 μM. Certain test compounds were further assayed in an expanded dilution series using a compound concentration range from about 0.001 μM to about 30 μM. Immediately after adding test compounds, the TLR9 agonist (1018 ISS, CpG-containing DNA oligonucleotide) was added to a final concentration of 1 μM. Cells were incubated for 48 hours at 37° C. A portion of the media supernatant was analyzed for the presence of IL-6 using ELISA kits. The amount of IL-6 produced is a reflection of the amount of TLR9-dependent receptor activity. The IC50 values (the concentration at which 50% of the TLR9-dependent receptor activity is reduced) were calculated based upon the TLR9-dependent receptor activity over a range of different test compound concentrations.

The mark [1] stands for this setting: IL-1 beta readout, read-out: Human TLR8 IC50 IL-1b.
[2] abbreviates: TNF-alpha readout, read-out: Human TLR8 IC50 TNF-a.
Setting [3] is: IL-6 readout, 48 hours, range about 0.01 to 10 μM, read-out: Human TLR9 IC50.
[4] abbreviates: IL-6, 48 hours, expanded dilution series about 0.001 to 30 μM, read-out: Human TLR9 IC50, expanded dilution series.

Where two headings read alike, the source gives them in different places. Bounds are passed on as bounds.

Turning to `CCN1CCN(C(=O)C2CCN(c3nnc(C)c4c(C)n(-c5ccc(C)cc5)nc34)CC2)CC1` [51x, (1-(3,4-dimethyl-2-(p-tolyl)-2H-pyrazolo[3,4-d]pyridazin-7-yl)piperidin-4-yl)(4-ethylpiperazin-1-yl)methanone], the IC50 at human TLR8 (setting [1]) came to 330 nM; at human TLR8 (setting [2]), 230 nM; at human TLR9 (setting [3]) it was 6 nM. For the same molecule, the “inhibits TLR8-dependent responses (in words)” value against human TLR8 (summary statement of the description) is recorded as “inhibit”. The “inhibits TLR9-dependent responses (in words)” value against human TLR9 is given as “inhibit”.

As for `Cc1ccc(-n2nc3c(N4CCC(C(=O)NCCCCCc5ccccc5)CC4)nnc(C)c3c2C)cc1` [2-12], the IC50 is over 10000 nM at human TLR8 (setting [1]), over 10000 nM at human TLR8 (setting [2]) and 427 nM at human TLR9 (setting [3]).

Consider `Cc1ccc(-n2nc3c(N4CCC(C(=O)NCCCc5ccccc5)CC4)nnc(C)c3c2C)cc1` [2-6], for which the 50% inhibitory concentration (IC50) on human TLR8 (setting [1]), at human TLR8 (setting [2]) and at human TLR9 (setting [3]) was over 10000 nM in each case.

In the case of `Cc1ccc(-n2nc3c(N4CCC(C(=O)NC5CCN(C)CC5)CC4)nnc(C)c3c2C)cc1` [compound 18, 1-(3,4-dimethyl-2-(p-tolyl)-2H-pyrazolo[3,4-d]pyridazin-7-yl)-N-(1-methylpiperidin-4-yl)piperidine-4-carboxamide], the values for the IC50 on human TLR8 (setting [1]), on human TLR8 (setting [2]) and on human TLR9 (setting [3]) were over 10000 nM, over 10000 nM and 137 nM, respectively.

`Cc1nnc(N2CCC(C(=O)NCCCN3CCN(C)CC3)CC2)c2nn(-c3ccccc3)c(C)c12` [31x, 1-(3,4-dimethyl-2-phenyl-2H-pyrazolo[3,4-d]pyridazin-7-yl)-N-(3-(4-methylpiperazin-1-yl)propyl)piperidine-4-carboxamide]: the IC50 is over 10000 nM at human TLR8 (setting [1]), over 10000 nM at human TLR8 (setting [2]) and 211 nM at human TLR9 (setting [3]).

As for `CCCN1CCN(C(=O)C2CCN(c3nnc(C)c4c(C)n(-c5ccccc5)nc34)CC2)CC1` [64x, (1-(3,4-dimethyl-2-phenyl-2H-pyrazolo[3,4-d]pyridazin-7-yl)piperidin-4-yl)(4-propylpiperazin-1-yl)methanone], the IC50 at human TLR8 (setting [1]) came to 660 nM; on human TLR8 (setting [2]) it was 900 nM; on human TLR9 (setting [3]), 13 nM.

For `Cc1ccc(-n2nc3c(N4CCC(C(=O)NCCCN(C)C)CC4)nnc(-c4ccccc4)c3c2C)cc1` [compound 35, N-(3-(dimethylamino)propyl)-1-(3-methyl-4-phenyl-2-(p-tolyl)-2H-pyrazolo[3,4-d]pyridazin-7-yl)piperidine-4-carboxamide], the 50% inhibitory concentration (IC50) on human TLR8 (setting [2]) was at least 20000 nM; on human TLR9 (setting [3]), 3710 nM.

Take `Cc1ccc(-n2nc3c(N4CCC(C(=O)NCCCCN(C)C)CC4)nnc(C)c3c2C)cc1` [compound 31, 1-(3,4-dimethyl-2-(p-tolyl)-2H-pyrazolo[3,4-d]pyridazin-7-yl)-N-(4-(dimethylamino)butyl)piperidine-4-carboxamide]: the IC50 on human TLR8 (setting [2]) was determined as 2680 nM; at human TLR9 (setting [3]), 86 nM.

On to `Cc1ccc(-n2nc3c(N4CCC(C(=O)N5CCC(N(C)C)C5)CC4)nnc(C)c3c2C)cc1` (centres unmarked) [compound 44, (1-(3,4-dimethyl-2-(p-tolyl)-2H-pyrazolo[3,4-d]pyridazin-7-yl)piperidin-4-yl)(3-(dimethylamino)pyrrolidin-1-yl)methanone], for which the IC50 at human TLR8 (setting [2]) is at least 20000 nM; at human TLR9 (setting [3]), 202 nM.

Consider `Cc1ccc(-n2nc3c(N4CCC(C)(C(=O)NCCCN(C)C)CC4)nnc(C)c3c2C)cc1` [compound 20, 1-(3,4-dimethyl-2-(p-tolyl)-2H-pyrazolo[3,4-d]pyridazin-7-yl)-N-(3-(dimethylamino)propyl)-4-methylpiperidine-4-carboxamide], for which the IC50 was found to be 24 nM at human TLR9 (setting [4]) and 18 nM at human TLR9 (setting [3]).

As for `Cc1ccc(-n2nc3c(N4CCC(C(=O)N5CC[C@H](CN(C)C)C5)CC4)nnc(C)c3c2C)cc1` [Compound 45a, (R)-(1-(3,4-dimethyl-2-(p-tolyl)-2H-pyrazolo[3,4-d]pyridazin-7-yl)piperidin-4-yl)(3-((dimethylamino)methyl)pyrrolidin-1-yl)methanone], on human TLR9, the “inhibits TLR9-dependent responses (in words)” value was “inhibit”.

Consider `Cc1ccc(-n2cc3cncc(N4CCC(C(=O)NCCCN(C)C)CC4)c3n2)cc1` [Compound No. 55, N-(3-(dimethylamino)propyl)-1-(2-(p-tolyl)-2H-pyrazolo[4,3-c]pyridin-7-yl)piperidine-4-carboxamide], for which the results for the IC50 on human TLR9 (setting [4]) and at human TLR9 (setting [3]) were 9 nM and 7 nM, respectively.

Regarding `Cc1ccc(-n2nc3c(N4CCC(C(=O)N5CC[C@@H](CN(C)C)C5)CC4)nnc(C)c3c2C)cc1` [Compound 45b, (S)-(1-(3,4-dimethyl-2-(p-tolyl)-2H-pyrazolo[3,4-d]pyridazin-7-yl)piperidin-4-yl)(3-((dimethylamino)methyl)pyrrolidin-1-yl)methanone], the “inhibits TLR9-dependent responses (in words)” value at human TLR9 is recorded as “inhibit”.
